In PMC3495945, “Org 214007-0: A Novel Non-Steroidal Selective Glucocorticoid Receptor Modulator with Full Anti-Inflammatory Properties and Improved Therapeutic Index” (PLoS ONE, 2012):

Key:
[1] = tested on: LPS-induced TNFα release; experiment: LPS-induced TNFα acute inflammation mouse model; assay type: in vivo; conditions: oral; for ED50: Mus musculus, 1 hour before LPS i.p., Balb/c mice, read-out: ED50, inhibition of LPS-induced serum TNFα
Method: For both the LPS-induced TNFα as well as the anti-CD3 induced IL-2 model, female Balb/c mice of 8–12 week old were used. Mice were treated orally with 0.2 ml compound or vehicle (water/mannitol (5%) with 5% DMSO/5% chremophore for the LPS model or with 0.5% gelatine for the anti-CD3 model). One hour after oral treatment animals were challenged i.p. with 0.2 ml of either 20 μg/mouse LPS (Sigma, E. coli serotype 055:B5) or 5 µg/mouse hamster anti-CD3 monoclonal (BD Biosciences Pharmingen, art. nr. 553057, clone 145-2C11). Ninety minutes after LPS injection or 3 hours after anti-CD3 challenge, blood samples were collected and serum levels of TNFα or IL-2 were determined via specific ELISAs (BD Biosciences Pharmingen, San Diego, CA, USA). In the experiment that included treatment with RU486 to block GR, mice were dosed subcutaneously with 50 mg/kg RU486 30 minutes before the oral compound dosing. ED50 and % efficacy (maximal percentage inhibition of TNFα or IL-2 release) are determined using a 3 parameter sigmoidal curve calculation. Statistical analysis of the results was performed using an one-way ANOVA (log) test.

[2] = target: T1, His-GR-LBD (F602S mutated) (Homo sapiens, UniProt P04150, F602S); experiment: Co-factor-peptide (TIF2-3) recruitment assay; assay type: biochemical; conditions: for Emax: read-out: percentage maximal efficacy (%CV), recruitment of TIF2-3 peptide
T1 construct: E. coli produced His-GR-LBD (F602S mutated) at 10 nM; made in house; host or cells: E. coli
T1 sequence (P04150 524-758 F602S limits assumed): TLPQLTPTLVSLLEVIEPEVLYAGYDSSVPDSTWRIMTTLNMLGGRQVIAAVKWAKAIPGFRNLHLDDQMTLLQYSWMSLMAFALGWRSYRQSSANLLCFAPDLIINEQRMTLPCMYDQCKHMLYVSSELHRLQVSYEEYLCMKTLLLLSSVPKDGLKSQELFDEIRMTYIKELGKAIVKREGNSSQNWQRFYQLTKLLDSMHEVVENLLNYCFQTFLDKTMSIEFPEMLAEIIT
Method: Hereafter, peptide, representing Transcriptional Intermediary Factor 2 – LXXLL motif 3 (TIF2-3) at 100 nM (final concentration), streptavidin-APC (8 nM, final concentration) and anti-His-Eu (1.25 nM final concentration) were added to a total volume of 50 μL/well and incubation at 4°C was continued for another 20 hours. Fluorescence was measured using Tecan Infinite M1000 and data were analysed by GraphPad Prism.

[3] = target: T2, GR (Homo sapiens, UniProt P04150); experiment: CHO-GR B4.8 MMTV-luciferase induction of gene expression (agonistic); assay type: cell-based; parameters: expressed in transfected cells; conditions: for Max. eff., MMTV-luc induction: relative to maximal effect of prednisolone (100%)
T2 sequence (P04150 1-777): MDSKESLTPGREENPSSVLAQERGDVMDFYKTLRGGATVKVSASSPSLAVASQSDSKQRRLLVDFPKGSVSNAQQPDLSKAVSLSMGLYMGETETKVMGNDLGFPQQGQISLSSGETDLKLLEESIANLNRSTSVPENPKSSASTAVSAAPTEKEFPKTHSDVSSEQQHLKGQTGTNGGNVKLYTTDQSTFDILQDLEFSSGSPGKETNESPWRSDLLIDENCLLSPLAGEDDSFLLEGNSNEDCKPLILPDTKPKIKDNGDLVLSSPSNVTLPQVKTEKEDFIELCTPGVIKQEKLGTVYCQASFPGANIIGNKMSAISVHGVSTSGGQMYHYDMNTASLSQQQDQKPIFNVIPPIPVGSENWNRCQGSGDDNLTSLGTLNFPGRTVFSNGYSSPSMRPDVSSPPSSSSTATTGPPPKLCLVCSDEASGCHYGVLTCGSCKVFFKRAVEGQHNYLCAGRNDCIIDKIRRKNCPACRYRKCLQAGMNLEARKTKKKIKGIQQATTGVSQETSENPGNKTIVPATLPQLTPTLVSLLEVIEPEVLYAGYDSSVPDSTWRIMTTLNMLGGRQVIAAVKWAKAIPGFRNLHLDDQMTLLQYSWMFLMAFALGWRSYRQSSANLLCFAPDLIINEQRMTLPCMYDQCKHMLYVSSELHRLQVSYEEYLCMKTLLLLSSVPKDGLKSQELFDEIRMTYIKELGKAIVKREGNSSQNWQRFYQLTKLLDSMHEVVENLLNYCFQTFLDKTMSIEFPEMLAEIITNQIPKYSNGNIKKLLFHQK
Description: For monitoring both human steroid receptor agonistic as well as antagonistic activity of compounds, Chinese hamster ovary (CHO) K1 cells stably co-transfected with the specific human steroid receptor and its respective reporter construct were used (as previously described).
For human glucocorticoid receptor (GR)-specific activity CHO-GR B4.8 cells containing both recombinant human GR as well as a reporter construct consisting of the mouse mammary tumor virus (MMTV) promotor and the luciferase reporter gene, were used. Compound was incubated alone (in the agonistic setup) or with 50 nM dexamethasone (in the antagonistic setup) overnight. Hereafter, 200 µl medium was removed and 50 µl luciferine substrate solution from the LucLite luminescence kit (Packard, Meriden, USA) was added. […] Percentage maximal antagonistic efficacy was related to the maximal antagonistic efficacy of reference GR antagonist Org 34116. Similar procedures were followed for the other human steroid receptor assays (for more detailed information see Supportive Information) (SI text).
For human glucocorticoid receptor (GR)-specific activity CHO-GR B4.8 cells containing both recombinant human GR as well as a reporter construct consisting of the mouse mammary tumor virus (MMTV) promotor and the luciferase reporter gene, were used. Compound was incubated alone (in the agonistic setup) or with 50 nM dexamethasone (in the antagonistic setup) in microtiter white culture plates seeded with 2.4 x 10^4 cells / 200 µl Dulbecco’s MEM/Nutrient Mix F12 medium (Gibco) supplemented with 5% charcoal treated defined bovine calf serum supplement (DBCSS, Hyclone, Utah, USA), and 10 U/ml Penicillin-10μg/ml Streptomycin (GibcoBRL) overnight at 37°C in the dark under a humidified atmosphere flushed with 5% CO2 in air. Hereafter, 200 µl medium was removed and 50 µl luciferine substrate solution from the LucLite luminescence kit (Packard, Meriden, USA) was added. After 10 minutes (when cell lysis was complete) luminescence of each sample was counted using a Topcount microplate luminescence counter. Percentage maximal agonistic efficacy was related to the maximal efficacy of dexamethasone. Percentage maximal antagonistic efficacy was related to the maximal antagonistic efficacy of reference GR antagonist Org 34116. EC50 value was calculated by 4-parameter curve fitting using the effect of 6 compound concentrations.

Row | SMILES | ED50 [1] [mg/kg] | maximal efficacy, inhibition of LPS-induced TNFα release [1] [%] | EC50 ([2]; 0.1 μM peptide, read-out: EC50 (%CV), recruitment of TIF2-3 peptide) [nM] | Emax [2] [%] | EC50 ([3]; CHO cells co-transfected with human GR and MMTV-luciferase, mean (±SD), read-out: EC50, MMTV-luc induction) [nM] | Max. eff., MMTV-luc induction [3] [%] | Max. eff., MMTV-luc induction ([3]; listed as Org)
1 | Cc1nnsc1C(=O)N[C@H]1CCN2c3ccc(C#N)cc3[C@@H](C)c3ccccc3[C@@H]2C1 [Org 214007-0] | 0.5 | 90 | 10 | 67 | 5.1 | 32 | 32 (±8.1) %
2 | C[C@]12C=CC(=O)C=C1CC[C@@H]1[C@@H]2[C@@H](O)C[C@@]2(C)[C@H]1CC[C@]2(O)C(=O)CO [prednisolone, reference compound] | 1 | – | – | 100 | – | 100 | –
